Data: publication PMC5408651 (Journal of visualized experiments : JoVE, 2017)

What was measured:
extracellular matrix = assay: alterations in extracellular matrix of tight-skin mouse; assay type: in vivo, Tsk/+ mice; conditions: tight-skin mouse (Tsk/+); abstract statement, no data shown
[1] = tested on: monocytes/macrophages (CD64); conditions: Tsk/+ mice, IRF5D 1 mg/kg/d subcutaneously, 21 d; Tsk/+ vs. Tsk/+ + IRF5D p<0.025; mean ± SD, n=3, 10 images per antibody; ref [21]; cited from earlier work
neutrophils (NIMP) = conditions: Tsk/+ mice, IRF5D 1 mg/kg/d subcutaneously, 21 d; Tsk/+ vs. Tsk/+ + IRF5D p<0.025; mean ± SD, n=3, 10 images per antibody; ref [21]; cited from earlier work

Substance: Ac-ELDWDADDIRLQIDNPD-NH2 [IRF5D]
- alterations in extracellular matrix (extracellular matrix): reduced alterations in extracellular matrix
- number of monocytes/macrophages (CD64) in the heart [1]: decreased
- number of neutrophils (NIMP) in the heart (neutrophils (NIMP)): decreased
